Experimental data taken from patent US20080044829A1, “Biosensor Utilizing Pigment-Synthesizing Gene Of A Purple Non-Sulfur Bacterium And A Method For Preparing Such A Biosensor” (priority 2004, published 2008).

Key:
DMS biosensor strain = test: Response of DMS biosensor strain (pSDMS in pigment variant): color tone and rate of red pigment by HPLC; assay type: cell-based, Rv. sulfidophilum; conditions: third day of incubation, bright aerobic condition, n=3
Experimental: When incubation of a bacterium strain was conducted in 10 ml of medium in a test tube under various conditions (under slightly aerobic and bright condition; under slightly aerobic and dark condition; and under anaerobic and bright condition), the incubation was done for three days. The culture liquid (1 ml) was placed in an Eppendorf tube, the pellets after centrifugal separation was frozen at −80° C. for 2 hours and then freeze-dried for one night. An appropriate amount (100 μl to 500 μl) of a mixed liquid of acetone and methanol was added to the resulting freeze-dried product, subjected to vortex for 2 minutes and then centrifuged for 5 minutes at 14,000 rpm using a portable centrifuge and the resulting supernatant liquid was used as a sample for an HPLC. […]
Since DMS is hardly soluble in water, ethanol was used as a solvent for the manufacture of concentrated stocks and preparation of diluted series. […] Analysis of pigment composition was conducted via an HPLC analysis the same as before and, from the value of area of each peak shown in the resulting HPLC chart, rate of red pigments (DMSO and SO) to the sum of total carotenoid pigment (DMSO, DMSE, SO, SE and neurosporene) was calculated. For each sample, mean value and standard deviation was calculated from the above value and a graph was prepared. […]

[1] = tested on: ddhA gene (promoter Pddh of ddh operon); test: RT-PCR analysis of ddhA gene transcription induction by sulfur compounds; assay type: cell-based, Rv. sulfidophilum W-1S; conditions: 3 days in 4CMOM medium, bright aerobic and dark aerobic condition
Experimental: Extraction of RNA was carried out using RNeasy Mini Kit (QIAGEN) according to the protocol attached thereto. For dissolving the cells at that time, lysozyme was added thereto in the indicated concentration. For the removal of the contaminated DNA, DNase I (TaKaRa) was used by the method indicated in the protocol together with the buffer attached thereto. Incubation was carried out at 37° C. for 30 minutes and, after that, RNA was purified via a PCI treatment and a precipitating operation with ethanol. A reverse transcription reaction was carried out where 1 μg of purified RNA as a template using an RNA PCR Kit (AMV) Ver. 2.1 (TaKaRa). In the reverse transcription reaction, things contained in the kit, i.e. reverse transcriptase, RNase inhibitor, random nonamer, buffer, dNTP and MgCl2 were used and the reaction was conducted at 45° C. for 28 minutes. A PCR was carried out by the same manner as in the above mentioned “4: PCR” using 4 μl of the solution after the reverse transcription reaction as a template.
Firstly, investigation of a DMS-inductive property of Pddh was planned. Primers ddhA1 and ddhA2 were designed based on ddhA gene sequence on the database. […]

SENS-AS strain = test: Specificity of SENS-AS strain to metals other than arsenic; assay type: cell-based, Rv. sulfidophilum
Source text: Therefore, specificity to metal of the SENS-AS strain was investigated by adding a sample containing metal other than arsenic to the SENS-AS strain and checking the responding property to those samples. With regard to the metal other than arsenic, there were used antimony and bismuth which have been reported to inherently show a responding property to ArsR and also cobalt, cadmium, nickel, zinc and lead where responding property in a protein having the similar sequence to metal-bonding site of ArsR has been confirmed already [L. S. Busenlehner, et al., (2003) FEMS Microbiol. Rev., 27:131-43]. The responding property was also tested for a solution in which iron, manganese, copper and aluminum which are abundantly contained in tap water were mixed. The experiment was carried out by the same method as in the detection of arsenic, rate of red pigments (DMSO and SO) to the total sum of DMSO, DMSE, SO and SE was calculated from the area value of each peak shown in the chart prepared as a result of an HPLC analysis, mean value and standard deviation for each sample were calculated and graphs were prepared.
From the above results, it was now made clear that the arsenic-detecting biosensor SENS-AS strain responded arsenic and bismuth. However, in order to respond to bismuth, a bismuth concentration of as high as 100-fold as compared with arsenic was necessary.

| SMILES | DMS concentration giving significant accumulation of SO and discriminable color tone (DMS biosensor strain) [mM] | ddhA gene transcription induction [1] | concentration needed for response as compared with arsenic (SENS-AS strain) [fold] |
| --- | --- | --- | --- |
| CSC [DMS, dimethyl sulfide] | 3 | apparent ddhA gene transcription induction was observed | – |
| [Bi] [bismuth] | – | – | 100 |
| C[S+](C)[O-] [dimethyl sulfoxide] | – | no significant induction of ddhA gene transcription | – |
